According to patent publication US20140357512A1, “HISTONE DEACETYLASE (HDAC) BIOMARKERS IN MULTIPLE MYELOMA” (priority 2013, published 2014):

System: human myeloma cell line MM.1S
Assay: SILAC acetylated-lysine peptide profiling, HDAC inhibitor vs DMSO (light/heavy ratio)
Type: cell-based
From the text: An embodiment of the invention comprises utilizing the SILAC method in order to quantitate changes in protein expression between two or more populations of cells. The SILAC method is a technique based on mass spectrometry that detects differences in protein abundance among samples using non-radioactive isotopic labeling. The SILAC method is known in the art, and described in detail in Ong et al., “Stable Isotope Labeling by Amino Acids in Cell Culture, SILAC, as a Simple and Accurate Approach to Expression Proteomics”, Molecular & Cellular Proteomics, vol. 1, pp. 376-386 (2002), which is incorporated herein by reference in its entirety.
Briefly, the SILAC method involves growing two populations of cells in cell culture. The first population of cells is grown in growth media containing normal amino acids (“normal media”). The second population of cells is grown in media lacking a standard essential amino acid (such as lysine), but is then supplemented with a non-radioactive, isotopically labeled form of that essential amino acid (such as lysine labeled with ^13C atoms, rather than normal ^12C atoms), which is called “heavy media”. When the two populations of cells are each growing in the medium, they incorporate the amino acids into all of their proteins. The growth of cells maintained in the heavy media is no different from that in normal media. All peptides containing the heavy amino acids are heavier than their normal counterparts. The cells from each of the two populations of cells are lysed. The lysates from each of the two cell populations are then combined. The combined cell lysates are then analyzed by mass spectrometry. Pairs of chemically identical peptides of different stable isotope composition can be differentiated in a mass spectrometer due to their difference in mass. The ratio of peak intensities in the mass spectrum for such peptide pairs reflects the abundance ratio for the two proteins.
This example describes SILAC studies that were performed to compare the effects of three different HDAC inhibitors (Compound A, Compound B, and tubastatin A) to a control on a human multiple myeloma cell line. The HDAC inhibitors were also compared amongst themselves to determine differences in their effects.
A human myeloma cell line MM.1S was grown using either ^12C (light) or ^13C (heavy) lysine containing culture medium. The “heavy” cells were treated with DMSO as the control, and the “light” cells were treated with a single HDAC inhibitor at 37° C. for 6 hours. The heavy and light cells were lysed, and the lysates were mixed in 1:1 ratio and digested with the protease trypsin. The acetylated lysine containing peptides (due to the action of the HDAC inhibitor) in the digested peptide pool were captured by a non-specific anti-acetylated lysine antibody cocktail (the antibodies identify both light and heavy acetylated peptides), and subjected to mass spectrometry analysis in order to identify thousands of individual peptides.
Thousands of peptides were identified in pairs (^12C and ^13C) due to their known mass differences. The amino acid sequence and quantitative ratio (Light/Heavy) of a given peptide in two differentially treated cell lysates were then determined and annotated with their possible protein (gene) sources.
As stated above, three HDAC inhibitors (Compound A, Compound B, and Tubastatin A) were used. Thus, the SILAC method was performed three times, with a different HDAC inhibitor compared to a control each time. Accordingly, there are three pairs of quantitative data in the table below, i.e., Compound A:DMSO, Compound B:DMSO, and Tubastatin A:DMSO. A cut-off of 1.30 fold of change (increase or decrease) was then used to determine “changed” or “+” in the table, and any peptides with a fold of change less than 1.3 fold were determined to be “unchanged” or “0” in the table. Those peptides that were not identified were marked as “NA” in the table. […]

## O=C(NO)c1cnc(NC2(c3cccc(F)c3)CCCCC2)nc1 [Compound B, 2-((1-(3-fluorophenyl)cyclohexyl)amino)-N-hydroxypyrimidine-5-carboxamide]
NK(ac)[…] (SEQ ID NO: 237), Vesicle-associated membrane protein 8 [47], VAMP8
  light to heavy ratio (L/H ratio) of acetylated peptide, log 2 scale: 0.00
NLDK(ac)[…] (SEQ ID NO: 159), Aspartate aminotransferase mitochondrial [94], GOT2
  light to heavy ratio (L/H ratio) of acetylated peptide, log 2 scale: 0.00
NLK(ac)NEITK (SEQ ID NO: 380), Isoform 1 of Coatomer subunit alpha [441], COPA
  L/H ratio of acetylated peptide: 0.40 log 2
NLPFSVENK(ac)WSLLAK (SEQ ID NO: 382), Cytochrome c oxidase subunit 7C mitochondrial [34], COX7C
  L/H ratio of acetylated peptide: −0.87 log 2
NPM1 [32], log 2 scale, drug vs DMSO
  L/H ratio of acetylated peptide ADKDYHFK(ac)[…] (SEQ ID NO: 61): 0.00
NUDT21 [23], log 2 scale, drug vs DMSO
  L/H ratio of acetylated peptide GVTQFGNK(ac)[…] (SEQ ID NO: 18): 0.50
NVQQTVSAK(ac)GPPEK(ac)R (SEQ ID NO: 416), Mediator of RNA polymerase II transcription subunit 6 [243:248], MED6
  L/H ratio of acetylated peptide: 0.49 log 2
NVYK(ac)FELDTSER (SEQ ID NO: 444), Dolichyl-diphosphooligosaccharide--protein glycosyltransferase subunit 2 [460], RPN2
  L/H ratio of acetylated peptide: 0.54 log 2
Nodal modulator 1 [630], NOMO3, NOMO1, drug:DMSO
  light to heavy ratio (L/H ratio) of acetylated peptide FCLSK(ac)PGVYK (SEQ ID NO: 345): 0.59 log 2
Nucleosome assembly protein 1-like 1 [116], gene NAP1L1, inhibitor:DMSO
  light to heavy ratio (L/H ratio) of acetylated peptide […](ac)R (SEQ ID NO: 532): 0.00 log 2
PDIA3 [214], log 2 scale, drug vs DMSO
  L/H ratio of acetylated peptide PSHLTNK(ac)FEDK (SEQ ID NO: 65): 0.00
PDIA3 [335], log 2 scale, drug vs DMSO
  L/H ratio of acetylated peptide GEK(ac)FVMQEEFSR (SEQ ID NO: 64): 0.00
PGK1 [91], log 2 scale, drug vs DMSO
  L/H ratio of acetylated peptide SLLGK(ac)DVLFLK (SEQ ID NO: 67): 0.00
PPIA [82], log 2 scale, drug vs DMSO
  L/H ratio of acetylated peptide SIYGEK(ac)FEDENFILK (SEQ ID NO: 68): 0.00
PPIB [67], log 2 scale, drug vs DMSO
  L/H ratio of acetylated peptide VIFGLFGK(ac)TVPK (SEQ ID NO: 70): 0.00
PPIB [71], log 2 scale, drug vs DMSO
  L/H ratio of acetylated peptide TVPK(ac)[…] (SEQ ID NO: 69): 0.00
PPIB [98], log 2 scale, drug vs DMSO
  L/H ratio of acetylated peptide VIK(ac)[…] (SEQ ID NO: 71): 0.00
PPP1CC [141], log 2 scale, drug vs DMSO
  L/H ratio of acetylated peptide IYGFYDECK(ac)R (SEQ ID NO: 72): 0.00
Peptidyl-prolyl cis-trans isomerase B [165], gene PPIB, inhibitor:DMSO
  light to heavy ratio (L/H ratio) of acetylated peptide TAWLDGK(ac)HVVFGK (SEQ ID NO: 592): 0.00 log 2
Peptidyl-prolyl cis-trans isomerase C [123], PPIC, drug:DMSO
  light to heavy ratio (L/H ratio) of acetylated peptide FPDENFK(ac)LK (SEQ ID NO: 347): −1.00 log 2
Peptidylprolyl isomerase A (Cyclophilin A) (PPIA) pseudogene [141], gene PPIAP26, inhibitor:DMSO
  light to heavy ratio (L/H ratio) of acetylated peptide HVVFGK(ac)VK (SEQ ID NO: 576): 0.00 log 2
Periodic tryptophan protein 2 homolog [279], gene PWP2, inhibitor:DMSO
  light to heavy ratio (L/H ratio) of acetylated peptide LAK(ac)YFFNK (SEQ ID NO: 604): 0.00 log 2
Poly [ADP-ribose] polymerase 1 [249], PARP1, drug:DMSO
  light to heavy ratio (L/H ratio) of acetylated peptide […](ac)DELKK (SEQ ID NO: 346): 0.83 log 2
Prohibitin [202], PHB, drug:DMSO
  light to heavy ratio (L/H ratio) of acetylated peptide FVVEK(ac)AEQQK (SEQ ID NO: 263): 0.00 log 2
Protein ERGIC-53 [49], LMAN1, drug:DMSO
  light to heavy ratio (L/H ratio) of acetylated peptide FEYK(ac)YSFK (SEQ ID NO: 340): −0.52 log 2
Protein FAM3C [72], gene FAM3C, inhibitor:DMSO
  light to heavy ratio (L/H ratio) of acetylated peptide HFAFK(ac)[…] (SEQ ID NO: 554): 0.00 log 2
Protein disulfide-isomerase [103], gene P4HB, inhibitor:DMSO
  light to heavy ratio (L/H ratio) of acetylated peptide GYPTIK(ac)FFR (SEQ ID NO: 541): 0.00 log 2
Protein disulfide-isomerase [263], P4HB, drug:DMSO
  light to heavy ratio (L/H ratio) of acetylated peptide THILLFLPK(ac)SVSDYDGK (SEQ ID NO: 297): 0.00 log 2
Protein disulfide-isomerase [375], P4HB, drug:DMSO
  light to heavy ratio (L/H ratio) of acetylated peptide VLVGK(ac)[…] (SEQ ID NO: 303): 0.00 log 2
Protein disulfide-isomerase [385], P4HB, drug:DMSO
  light to heavy ratio (L/H ratio) of acetylated peptide […](ac)K (SEQ ID NO: 286): 0.00 log 2
Putative annexin A2-like protein [148], gene ANXA2P2, drug:DMSO
  light to heavy ratio (L/H ratio), log 2 scale, acetylated peptide VYK(ac)EMYK (SEQ ID NO: 777): 0.00
Putative annexin A2-like protein [227], gene ANXA2P2, drug:DMSO
  light to heavy ratio (L/H ratio), log 2 scale, acetylated peptide SVPHLQK(ac)VFDR (SEQ ID NO: 776): 0.00
